In patent EP0409227A2, “Pyrimidine nucleosides, their preparation and pharmaceutical preparations” (MATTHES, Eckart, Dr., priority 1989, dated 1991):
Where two headings read alike, the source gives them in different places.

Assays:
Hep G2 (2.2.15)-Zellen = test: DNA synthesis of Hep G2 (2.2.15) cells (acid-insoluble radioactivity after 3H-thymidine or 3H-deoxyadenosine); type: cell-based, menschlichen; settings: 4 days, then 24 h label, mean ± SD of five experiments
Protocol: (§1) Die Testung der antiviralen Wirksamkeit der Nucleoside auf zelluärer Ebene erfolgte an einer menschlichen Hepatoblastom-Zellinie, die mit dem HBV-Genom tranfiziert wurde und sowohl das Oberflächenantigen des Virus (HBsAg) als auch die HBV-DNA permanent produziert und infektiöse Viruspartikel in das Medium abgibt (Hep G2-Zellen, Klon 2.2.15, Sells et al. Proc.Natl.Acad. Sci. 84, 1005 (1987)). Die Zellen (5x10⁵/ml) wurden in RPMI 1640-Medium mit 2 mM Glutamin und 10% fetalem Kälberserum allein oder zusammen mit den Nucleosid-Analoga für 4 Tage inkubiert, danach wurden den Ansätzen für 24 Stunden ³H-Thymidin bzw. ³H-Desoxyadenosin (3 µCi/ml) zugesetzt, die Zellen abzentrifugiert und darin die säureunlösliche Radioaktivität und damit der Einfluß auf die DNA-Synthese bestimmt. Im Inkubationsmedium wurde das HBsAg durch Festphasenradioimmunoassay (Travenol-Genentech Diagnostics, Cambridge, MA) entsprechend den Instruktionen des Herstellers ermittelt. Die Tabelle 4 faßt die Ergebnisse zusammen, die belegen, daß die getesteten Verbindungen hochwirksame und selektive Hemmstoffe der HBV-Vermehrung sind.

[1] = tested on: HBsAg-Sekretion von Hep G2 (2.2.15)-Zellen; test: Inhibition of HBsAg secretion of Hep G2 (2.2.15) cells (solid-phase radioimmunoassay of the medium); type: cell-based, HBV
Protocol: as §1

HBV-Polymerase = biological target: T1, HBV-Polymerase (Hepatitis B virus genotype D subtype ayw, UniProt P03156); test: Inhibition of HBV polymerase activity by nucleoside triphosphate analogues (method of Kaplan et al.); type: biochemical
T1 construct: Es wurde zunächst die Hemmbarkeit der HBV-assoziierten Polymerase; host or cells: virus-associated endogenous polymerase
Text: Das Hepatitis B Virus (HBV) besitzt eine zirkuläre, partiell doppelsträngige DNA, welche nach Infektion einer Leberzelle durch eine viruseigene Polymerase repliziert wird. Dieser Vorgang setzt jedoch die Synthese einer RNA durch eine zelluläre RNA-Polymerase voraus. Nur diese RNA-Matrize - im Zusammenhang mit der Replikation auch als Prägenom bezeichnet - kann von der HBV-Polymerase für die Synthese zunächst eines RNA-DNA Hybrids und dann der doppelsträngigen DNA benutzt werden. Damit verfügt die HBV-Polymerase über eine enzymatische Aktivität, die der einer reversen Transcriptase ähnelt (Will et al., J.Virology 61, 904 (1987)). Es wurde zunächst die Hemmbarkeit der HBV-assoziierten Polymerase durch die 5′-Triphosphate der erfindungsgemäßen Verbindungen untersucht. Dazu wurde die von Kaplan et al. (J.Virology 12, 995 (1973)) angegebene Methode zur Bestimmung der HBV-Polymerase benutzt, wobei die zu testenden Triphosphate den Ansätzen in verschiedenen Konzentrationen zugesetzt wurden. Die Hemmung der Enzymreaktion wurde nach 3-stündiger Inkubation bei 37 °C durch Vergleich mit einem Kontrollwert ermittelt und daraus die Konzentration der zugesetzten Analoga bestimmt, die zu einer 50 %igen Hemmung der HBV-Polymerase-Aktivität führt (ID₅₀). Tabelle 1 zeigt die Ergebnisse, wobei insbesondere 2′,3′-Didesoxy-3′-fluor-5-methylcytidin durch einen Wert ID₅₀ von 0,03 µM herausragt und damit zu den stärksten bisher bekannten Hemmstoffen der HBV-Polymerase zu rechnen ist. Tabelle 1

[2] = nucleoside 0,01 µM, 4 days + 24 h, mean ± SD of five experiments
[3] = nucleoside 0,1 µM, 4 days + 24 h, mean ± SD of five experiments
[4] = nucleoside 0,01 µM, % of control without nucleoside (100)
[5] = nucleoside 0,1 µM, % of control without nucleoside (100)
[6] = nucleoside 0,03 µM, 4 days + 24 h, mean ± SD of five experiments
[7] = nucleoside 0,3 µM, 4 days + 24 h, mean ± SD of five experiments
[8] = nucleoside 0,03 µM, % of control without nucleoside (100)
[9] = nucleoside 0,3 µM, % of control without nucleoside (100)
[10] = nucleoside 0,003 µM, 4 days + 24 h, mean ± SD of five experiments
[11] = nucleoside 0,003 µM, % of control without nucleoside (100)
[12] = nucleoside 1,0 µM, 4 days + 24 h, mean ± SD of five experiments
[13] = nucleoside 1,0 µM, % of control without nucleoside (100)
[14] = nucleoside 3,0 µM, 4 days + 24 h, mean ± SD of five experiments
[15] = nucleoside 3,0 µM, % of control without nucleoside (100)

T1 sequence (P03156 whole entry): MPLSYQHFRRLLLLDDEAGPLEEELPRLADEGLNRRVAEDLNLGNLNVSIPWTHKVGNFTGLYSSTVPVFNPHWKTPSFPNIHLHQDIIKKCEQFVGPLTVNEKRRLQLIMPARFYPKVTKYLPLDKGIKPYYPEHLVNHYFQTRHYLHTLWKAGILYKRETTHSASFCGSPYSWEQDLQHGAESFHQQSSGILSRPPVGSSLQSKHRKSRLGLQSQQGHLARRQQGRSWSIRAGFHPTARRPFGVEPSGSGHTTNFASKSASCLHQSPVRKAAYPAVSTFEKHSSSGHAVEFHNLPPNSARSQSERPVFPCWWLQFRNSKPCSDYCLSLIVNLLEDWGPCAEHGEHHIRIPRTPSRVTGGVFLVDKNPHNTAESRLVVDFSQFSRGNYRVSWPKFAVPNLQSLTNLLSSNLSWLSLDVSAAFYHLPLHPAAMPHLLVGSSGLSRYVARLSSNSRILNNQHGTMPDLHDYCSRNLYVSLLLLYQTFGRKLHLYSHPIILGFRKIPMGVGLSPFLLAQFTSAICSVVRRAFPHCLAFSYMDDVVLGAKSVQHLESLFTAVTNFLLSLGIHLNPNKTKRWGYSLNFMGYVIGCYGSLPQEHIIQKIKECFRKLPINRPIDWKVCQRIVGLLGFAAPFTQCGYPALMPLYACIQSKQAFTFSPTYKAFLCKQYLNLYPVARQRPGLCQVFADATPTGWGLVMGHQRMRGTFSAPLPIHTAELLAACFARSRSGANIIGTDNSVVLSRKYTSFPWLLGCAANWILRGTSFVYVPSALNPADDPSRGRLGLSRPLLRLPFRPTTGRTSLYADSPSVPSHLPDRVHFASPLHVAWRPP

Compound	^3H-DNA (Hep G2 (2.2.15)-Zellen; nucleoside 0,01 µM) [dpm/Kultur]	^3H-DNA (Hep G2 (2.2.15)-Zellen; nucleoside 0,1 µM) [dpm/Kultur]	^3H-DNA (Hep G2 (2.2.15)-Zellen; nucleoside 0,03 µM) [dpm/Kultur]	^3H-DNA (Hep G2 (2.2.15)-Zellen; nucleoside 0,3 µM) [dpm/Kultur]	^3H-DNA (Hep G2 (2.2.15)-Zellen; nucleoside 0,003 µM) [dpm/Kultur]	^3H-DNA (Hep G2 (2.2.15)-Zellen; nucleoside 1,0 µM) [dpm/Kultur]	^3H-DNA (Hep G2 (2.2.15)-Zellen; nucleoside 3,0 µM) [dpm/Kultur]	HBsAg [1, 2]	HBsAg [1, 3]	HBsAg [1, 4] [%]	HBsAg [1, 5] [%]	HBsAg [1, 6]	HBsAg [1, 7]	HBsAg [1, 8] [%]	HBsAg [1, 9] [%]	HBsAg [1, 10]	HBsAg [1, 11] [%]	HBsAg [1, 12]	HBsAg [1, 13] [%]	HBsAg [1, 14]	further results
Nc1ccn([C@H]2C=C[C@@H](CO)O2)c(=O)n1 [2',3'-Didehydro-2',3'-didesoxycytidin]	18410 ± 1895	19930 ± 1830	15685 ± 1740	14270 ± 1655	17940 ± 1865	12350 ± 1310	6535 ± 790	12,1 ± 1,6 ng/ml	0,8 ± 0,2 ng/ml	69	5	5,8 ± 1,2 ng/ml	0,4 ± 0,2 ng/ml	33	2	18,7 ± 2,8 ng/ml	107	< 0,1 ng/ml	< 1	< 0,1 ng/ml	HBsAg [1, 15]: < 1%
Nc1nc(N)c2ncn([C@H]3C[C@H](F)[C@@H](CO)O3)c2n1 [2',3'-Didesoxy-3'-fluor-2,6-diaminopurinribosid]	16820 ± 1775	19990 ± 1820	17265 ± 1895	15125 ± 1795	19535 ± 1835	18885 ± 1950	17740 ± 1670	3,2 ± 0,6 ng/ml	< 0,1 ng/ml	18	< 1	2,0 ± 0,5 ng/ml	< 0,1 ng/ml	11	< 1	15,9 ± 2,7 ng/ml	91	< 0,1 ng/ml	< 1	< 0,1 ng/ml	HBsAg [1, 15]: < 1%
CCc1cn([C@H]2C[C@H](F)[C@@H](CO)O2)c(=O)nc1N [2',3'-Didesoxy-3'-fluor-5-ethylcytidin]	13855 ± 1945	15245 ± 1655	14570 ± 1695	14130 ± 1940	14020 ± 1780	9850 ± 1230	6640 ± 965	8,2 ± 0,8 ng/ml	0,6 ± 0,1 ng/ml	42	3	2,6 ± 0,6 ng/ml	< 0,1 ng/ml	13	< 1	16,7 ± 2,6 ng/ml	87	< 0,1 ng/ml	< 1	< 0,1 ng/ml	HBsAg [1, 15]: < 1%
Nc1nc2c(ncn2[C@H]2C[C@H](N)[C@@H](COP(=O)(O)OP(=O)(O)OP(=O)(O)O)O2)c(=O)[nH]1 [2′,3′-Didesoxy-3′-aminoguanosin-5′-triphosphat]																					IC50 (HBV-Polymerase; 50 % inhibition of HBV polymerase activity, 3 h incubation at 37 °C, read-out: ID₅₀): 4 µM
Nc1ncc2ncn([C@H]3C[C@H](F)[C@@H](COP(=O)(O)OP(=O)(O)OP(=O)(O)O)O3)c2n1 [2′,3′-Didesoxy-3′-fluor-2-aminopurinribosid-5′-triphosphat]																					IC50 (HBV-Polymerase): 0.6 µM
Nc1nc2c(ncn2[C@H]2C[C@H](F)[C@@H](COP(=O)(O)OP(=O)(O)OP(=O)(O)O)O2)c(=S)[nH]1 [2′,3′-Didesoxy-3′-fluor-6-thioguanosin-5′-triphosphat]																					IC50 (HBV-Polymerase): 0.5 µM
Cc1cn([C@@H]2O[C@H](CO)[C@@H](O)[C@@H]2O)c(=O)nc1N [Arabinosyl-5-methyl-cytosin, 1-β-D-Arabinofuranosyl-5-methylcytosin]	17990 ± 1635	16225 ± 1825	19075 ± 1905	18600 ± 1865	17755 ± 1750	12415 ± 1070	8470 ± 935	12,4 ± 1,2 ng/ml	3,6 ± 0,5 ng/ml	71	21	10,3 ± 1,2 ng/ml	0,6 ± 0,3 ng/ml	59	3	16,8 ± 1,7 ng/ml	96	< 0,1 ng/ml	< 1	< 0,1 ng/ml	HBsAg [1, 15]: < 1%
